The text below walks through data of PMC12246728, “Efficient Oxidative Polymerization of Hydroxytyrosol Using Horseradish Peroxidase Immobilized on a Magnetic Silica‐Coated Nanocatalyst” (Global Challenges, 2025).

For this experiment, the system named is T1, horseradish peroxidase (HRP).
T1 construct: gene PRXC1A
Nature of the experiment: initial rate by absorbance at […] nm, Lineweaver-Burk. Format: biochemical. The note with it: free enzyme; 1 mM H2O2, pH 7.0, 25 °C; HXT 0.5-5.0 mM.

For `OCCc1ccc(O)c(O)c1` [HXT, hydroxytyrosol], the Km was determined as 4.45 mM.

One may read the Km as the substrate concentration at which the rate is half of its maximum.
